Laboratory results as given in ChEMBL document CHEMBL1201862, “PubChem BioAssay data set” (2004).
Calls of active or inactive are those of the source.

Experiments:
Vero = assay: cells; assay type: functional; conditions: Chlorocebus sabaeus
[1] = THP-1 cell cytotoxicity, dose response, cytotoxicity control for Vif-APOBEC3G degradation inhibitor project, THP-1 cells (AID 1117359); assay type: functional; conditions: Human immunodeficiency virus 1, THP-1
[2] = microbe, parasite or virus in culture; assay type: functional; conditions: Mycobacterium tuberculosis
[3] = ZM109 Env clade C HIV-1 fusion inhibitors, dose response, HeLa effector, CEM target cells, luciferase, cherry-pick (AID 652058); assay type: functional, cell-based
[4] = inhibitors of clade B AD8 Env fusion, dose response, cell-based, cherry-pick (AID 652062); assay type: functional;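 further: luciferase signal from cell-cell fusion driven by HIV-1 clade B AD8 Env; potency is for inhibitors of fusion seen as a drop in luminescence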
[5] = inhibitors of HIV Env-driven cell fusion, dose response, cherry-pick (AID 652057); assay type: functional, cell-based
[6] = off-target signal loss in HeLa-CEM21 co-culture – HeLa F-luc CTL cells, cherry-picked, counter-screen for HIV-1 Env fusion inhibitor project, dose response (AID 652040); assay type: functional, cell-based;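 further: potency for signal decrease marking cytotoxic or nonspecific inhibition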
[7] = target: T1, Apoptotic protease-activating factor 1 (Homo sapiens, UniProt O14727); assay type: functional
T1 sequence (O14727 whole entry): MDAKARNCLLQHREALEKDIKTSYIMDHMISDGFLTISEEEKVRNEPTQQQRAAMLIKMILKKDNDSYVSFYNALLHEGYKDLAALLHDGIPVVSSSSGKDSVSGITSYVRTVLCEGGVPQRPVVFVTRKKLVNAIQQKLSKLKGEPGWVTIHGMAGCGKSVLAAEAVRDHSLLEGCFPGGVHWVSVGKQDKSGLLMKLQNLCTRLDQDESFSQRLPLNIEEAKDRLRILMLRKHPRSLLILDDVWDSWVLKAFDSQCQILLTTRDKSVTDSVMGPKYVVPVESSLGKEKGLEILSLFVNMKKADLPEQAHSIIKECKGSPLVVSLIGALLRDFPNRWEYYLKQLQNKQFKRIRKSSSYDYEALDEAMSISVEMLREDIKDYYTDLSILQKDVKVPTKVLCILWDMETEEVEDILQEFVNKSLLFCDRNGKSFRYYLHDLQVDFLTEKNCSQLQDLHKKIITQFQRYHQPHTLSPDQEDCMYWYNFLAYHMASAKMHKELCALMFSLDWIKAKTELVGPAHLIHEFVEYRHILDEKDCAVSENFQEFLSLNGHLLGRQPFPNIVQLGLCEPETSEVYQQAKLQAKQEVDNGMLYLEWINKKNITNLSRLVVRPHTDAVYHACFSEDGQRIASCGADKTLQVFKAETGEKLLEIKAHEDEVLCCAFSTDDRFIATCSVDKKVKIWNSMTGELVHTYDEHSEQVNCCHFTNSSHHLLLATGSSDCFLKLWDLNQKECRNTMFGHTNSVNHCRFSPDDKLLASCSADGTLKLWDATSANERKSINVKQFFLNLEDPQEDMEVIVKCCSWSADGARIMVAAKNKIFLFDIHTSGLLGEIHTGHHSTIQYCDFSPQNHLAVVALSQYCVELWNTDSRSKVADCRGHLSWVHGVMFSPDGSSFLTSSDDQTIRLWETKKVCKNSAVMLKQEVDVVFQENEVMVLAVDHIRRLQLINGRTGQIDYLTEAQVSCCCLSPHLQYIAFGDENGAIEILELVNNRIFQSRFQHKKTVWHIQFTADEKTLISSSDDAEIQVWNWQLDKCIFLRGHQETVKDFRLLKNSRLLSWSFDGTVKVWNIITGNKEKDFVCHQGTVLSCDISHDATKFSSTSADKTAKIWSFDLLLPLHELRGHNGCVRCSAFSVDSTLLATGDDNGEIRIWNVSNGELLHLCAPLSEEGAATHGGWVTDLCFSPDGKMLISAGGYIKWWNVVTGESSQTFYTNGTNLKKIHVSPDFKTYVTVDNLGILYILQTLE

[8] = A Cell Based Secondary Assay To Explore Cytotoxicity of Compounds that Sensitize Mycobacterium Tuberculosis to Beta-Lactam Antibiotics.; assay type: functional
[9] = P. falciparum Dd2 growth inhibitors, dose response, SYBR Green, dry powder samples (AID 1159566); assay type: functional, cell-based;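 further: potency for growth inhibition with lower SYBR green DNA signal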
[10] = P. falciparum ATP4 D1247Y mutant growth inhibitors, dose response, NITD609-resistant line, SYBR Green, dry powder (AID 1159571); assay type: functional, cell-based;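 further: parasites synchronized at ring stage by sorbitol before testing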
[11] = P. falciparum Dd2 growth inhibitors, dose response, SYBR Green, cherry-picked samples (AID 1159567); assay type: functional, cell-based
[12] = P. falciparum 3D7-ScDHODH growth inhibitors, dose response, SYBR Green, dry powder samples (AID 1159570); assay type: functional, cell-based;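 further: parasite growth measured after 72 hours of compound exposure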

In the case of `O=C(/C=C/c1ccccc1)c1ccc2ccccc2c1`, the CC50 (Vero) is reported as > 25 µM (active).
For `CCc1nc2cc(Cc3ccc4[nH]c(CC)nc4c3)ccc2[nH]1`, the CC50 [1] was 15.5 µM (active).
In the case of `C=CCOc1ccc2c(c1)C(=NO)c1cc(OCC=C)ccc1-2`, the CC50 [1] is reported as > 40 µM (active) and the CC50 [2] is reported as > 40 µM (active).
With `Cc1ccc(S(=O)(=O)N(C)C[C@@H]2Oc3ccc(NC(=O)C4CCCCC4)cc3CC(=O)N([C@@H](C)CO)C[C@@H]2C)cc1` the AC50 [3] was 2 µM (active), the AC50 [4] was 12.2 µM (active) and the AC50 [5] was 3.75 µM (active).
For `CCN1C[C@@H]2[C@@H]3C(=O)N(Cc4ccccc4)C(=O)[C@@H]3[C@](CC)(C1=O)N2C(=O)c1ccc(C(C)(C)C)cc1`, the AC50 [3] was 20.2 µM (active), the AC50 [6] was 15.4 µM (active) and the AC50 [4] was 4.4 µM (active). The AC50 [5] was 5.77 µM (active).
With `CC(C)C[C@H]1COCn2nncc2CC[C@@H](Cc2ccccc2)C(=O)N1` the AC50 [3] was 7.51 µM (active), the AC50 [4] was 12.9 µM (active) and the AC50 [5] was 7.3 µM (active).
For `Cc1nn(-c2ccccc2)c(O)c1/C=N/NC(=O)c1ccoc1C`, the IC50 [7] was 11.2 µM (active) and the CC50 [8] was 4.71 µM (active).
In the case of `COc1ccc2c3c(n(C)c2c1)[C@@H](CO)N(CC1CCCCC1)CC31CCN(Cc2nccs2)CC1`, the AC50 [9] is reported as 1.03 µM (active), the AC50 [10] is reported as 0.891 µM (active) and the AC50 [11] is reported as 1.12 µM (active). For the same molecule, the AC50 [12] was 0.835 µM (active).
For `COc1ccc(NC(=O)N2CCCCN3[C@H](CO)[C@H](c4ccc(C#Cc5ccccn5)cc4)[C@@H]3C2)cc1`, the AC50 [9] was 0.131 µM (active), the AC50 [10] was 0.109 µM (active) and the AC50 [11] was 0.301 µM (active). The AC50 [12] was 0.109 µM (active).
